Measured values as given in patent publication US10159726B2, “Peptides, combination of peptides and scaffolds for use in immunotherapeutic treatment of various cancers” (Immatics Biotechnologies GmbH, priority 2015, dated 2018).

How the values were obtained:
[1] = test system: CD8+ T cells of healthy HLA-A*02+ donors; assay: In vitro T-cell priming (immunogenicity) with aAPCs loaded with HLA-A*02 peptide/MHC and anti-CD28, multimer readout; type: cell-based, human; conditions: HLA-A*02 peptides; in vitro priming, multimer readout
Excerpt: In order to obtain information regarding the immunogenicity of the TUMAPs of the present invention, the inventors performed investigations using an in vitro T-cell priming assay based on repeated stimulations of CD8+ T cells with artificial antigen presenting cells (aAPCs) loaded with peptide/MHC complexes and anti-CD28 antibody.
In order to perform in vitro stimulations by artificial antigen presenting cells loaded with peptide-MHC complex (pMHC) and anti-CD28 antibody, the inventors first isolated CD8+ T cells from fresh HLA-A*02 leukapheresis products via positive selection using CD8 microbeads (Miltenyi Biotec, Bergisch-Gladbach, Germany) of healthy donors obtained from the University clinics Mannheim, Germany, after informed consent.
PBMCs and isolated CD8+ lymphocytes were incubated in T-cell medium (TCM) until use consisting of RPMI-Glutamax (Invitrogen, Karlsruhe, Germany) supplemented with 10% heat inactivated human AB serum (PAN-Biotech, Aidenbach, Germany), 100 U/ml Penicillin/100 μg/ml Streptomycin (Cambrex, Cologne, Germany), 1 mM sodium pyruvate (CC Pro, Oberdorla, Germany), 20 μg/ml Gentamycin (Cambrex). 2.5 ng/ml IL-7 (PromoCell, Heidelberg, Germany) and 10 U/ml IL-2 (Novartis Pharma, Nürnberg, Germany) were also added to the TCM at this step.
Generation of pMHC/anti-CD28 coated beads, T-cell stimulations and readout was performed in a highly defined in vitro system using four different pMHC molecules per stimulation condition and 8 different pMHC molecules per readout condition.
The purified co-stimulatory mouse IgG2a anti human CD28 Ab 9.3 (Jung et al., 1987) was chemically biotinylated using Sulfo-N-hydroxysuccinimidobiotin as recommended by the manufacturer (Perbio, Bonn, Germany). Beads used were 5.6 μm diameter streptavidin coated polystyrene particles (Bangs Laboratories, Illinois, USA).
pMHC used for positive and negative control stimulations were A*0201/MLA-001 (peptide […] (SEQ ID NO. 418) from modified Melan-A/MART-1) and A*0201/DDX5-001 ([…] from DDX5, SEQ ID NO. 419), respectively.
800.000 beads/200 μl were coated in 96-well plates in the presence of 4×12.5 ng different biotin-pMHC, washed and 600 ng biotin anti-CD28 were added subsequently in a volume of 200 μl. Stimulations were initiated in 96-well plates by co-incubating […] CD8+ T cells with 2×10^5 washed coated beads in 200 μl TCM supplemented with 5 ng/ml IL-12 (PromoCell) for 3 days at 37° C. Half of the medium was then exchanged by fresh TCM supplemented with 80 U/ml IL-2 and incubating was continued for 4 days at 37° C. This stimulation cycle was performed for a total of three times. For the pMHC multimer readout using 8 different pMHC molecules per condition, a two-dimensional combinatorial coding approach was used as previously described (Andersen et al., 2012) with minor modifications encompassing coupling to 5 different fluorochromes. Finally, multimeric analyses were performed by staining the cells with Live/dead near IR dye (Invitrogen, Karlsruhe, Germany), CD8-FITC antibody clone SK1 (BD, Heidelberg, Germany) and fluorescent pMHC multimers. For analysis, a BD LSRII SORP cytometer equipped with appropriate lasers and filters was used. Peptide specific cells were calculated as percentage of total CD8+ cells. Evaluation of multimeric analysis was done using the FlowJo software (Tree Star, Oregon, USA). In vitro priming of specific multimer+ CD8+ lymphocytes was detected by comparing to negative control stimulations.
Exemplary flow cytometry results after TUMAP-specific multimer staining for 2 peptides of the invention are shown in FIG. 3 together with corresponding negative controls. Exemplary flow cytometry results after TUMAP-specific multimer staining for 7 peptides of the invention are shown in FIGS. 4 and 5 together with corresponding negative controls.

HLA-A*02 = HLA-A*02 (Homo sapiens, UniProt P04439, D140Y/D185E/D98H/E176V/E277Q/G131W/G231S/I119V/I121R/I166T/I218V/N151K/N90K/P208A/P217A/Q86G/Q94H/R138H/R169H); assay: MHC binding assay, UV-ligand exchange with beta2m ELISA, HLA-A*02; conditions: peptide exchange yield
Procedure, shortened: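 Stabilised complexes were quantified via their β2m light chain: 100-fold-diluted monomers bound to streptavidin plates, then HRP anti-β2m at 2 ug/ml for 1 h at 37° C., TMB read at 450 nm. The value is the yield of UV-induced exchange of a photocleavable peptide for the candidate.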

9 (FLGDYVENL; listed as Homo sapiens) [compound 9]
in vitro immunogenicity, Wells positive [%] [1]: + (<20% = +)
MHC class I binding score, Peptide exchange (HLA-A*02): ++ (20%-49% = ++)
